Data published in ChEMBL document CHEMBL3044569, “Mini-plot field experiments using seed dressings to control slug damage to oilseed rape” (Crop Prot, 2006).
Calls of active or inactive are those of the source. The rule behind the calls is not given here.

What was measured:
[1] = tested on: Deroceras reticulatum; experiment: Pesticidal activity against Deroceras reticulatum infected oilseed rape assessed as protection against slug damage studied in autumn applied during seed dressing at 58 g a.i/kg seed after 1 to 4 weeks relative to untreated control; type: functional, organism-based
[2] = tested on: Deroceras reticulatum; experiment: Pesticidal activity against Deroceras reticulatum infected oilseed rape assessed as protection against slug damage studied in spring applied during seed dressing at 60 g a.i/kg seed after 2 to 4 weeks relative to untreated control; type: functional, organism-based
[3] = tested on: Deroceras reticulatum; experiment: Pesticidal activity against Deroceras reticulatum infected oilseed rape assessed as protection against slug damage studied in autumn applied as pellet at 8 kg product/ha after 1 to 4 weeks relative to untreated control; type: functional, organism-based
[4] = tested on: Deroceras reticulatum; experiment: Pesticidal activity against Deroceras reticulatum infected oilseed rape assessed as protection against slug damage studied in spring applied as pellet at 8 kg product/ha after 1 to 4 weeks relative to untreated control; type: functional, organism-based
[5] = tested on: Brassica napus; experiment: Phytotoxicity in Brassica napus (oilseed rape) at 58 g a.i/kg applied during seed dressing after 4 weeks studied in autumn (reference value: 89 +/- 2.9 %); type: organism-based; conditions: in vivo, other, 672 h
[6] = tested on: Brassica napus; experiment: Phytotoxicity in Brassica napus (oilseed rape) at 60 g a.i/kg applied during seed dressing after 4 weeks studied in spring (reference value: 91 +/- 2.8 %); type: organism-based; conditions: in vivo, other, 672 h
[7] = tested on: Deroceras reticulatum; experiment: Pesticidal activity against Deroceras reticulatum infected oilseed rape assessed as protection against slug damage studied in spring applied during seed dressing at 20 g a.i/kg seed after 2 to 4 weeks relative to untreated control; type: functional, organism-based
[8] = tested on: Brassica napus; experiment: Phytotoxicity in Brassica napus (oilseed rape) at 18 g a.i/kg applied during seed dressing after 4 weeks studied in autumn (reference value: 89 +/- 2.9 %); type: organism-based; conditions: in vivo, other, 672 h
[9] = tested on: Brassica napus; experiment: Phytotoxicity in Brassica napus (oilseed rape) at 20 g a.i/kg applied during seed dressing after 4 weeks studied in spring (reference value: 91 +/- 2.8 %); type: organism-based; conditions: in vivo, other, 672 h
[10] = tested on: Deroceras reticulatum; experiment: Pesticidal activity against Deroceras reticulatum infected oilseed rape assessed as protection against slug damage studied in autumn applied during seed dressing at 18 g a.i/kg seed after 1 to 4 weeks relative to untreated control; type: functional, organism-based

For `CC1OC(C)OC(C)OC(C)O1` (stereo not given) [METALDEHYDE], the Activity [1] was “Active”, the Activity [2] was “Active” and the Activity [3] was “Active”. For the same compound, the Activity [4] was “Active”, the Activity [5] was 77% and the Activity [6] was 90.3%.
With `CNC(=O)Oc1cc(C)c(SC)c(C)c1` [METHIOCARB] the Activity [7] was “Active”, the Activity [8] was 86.5% and the Activity [9] was 87.5%. For the same compound, the Activity [10] was “Active”.
